Experiments:
MM.1S myeloma cells [1] = assay: Cell proliferation inhibition test by MTS assay; assay type: cell-based; details: Homo sapiens, MM1.S, 72 hours drug treatment, 15,000 cells/well, 96-well plate
Protocol: Experimental Method for Cell Proliferation Inhibition Test by MTS Assay:
Proliferating MM.1S myeloma cells (ATCC, Cat #CRL-2974) were resuspended in RPMI-640 medium (Gibco, Cat #A10491-01) and counted using an automated cell counter. The cell suspension was diluted to the needed density and 100 μl (15,000 cells) of the cell suspension was plated per well in a 96-well plate. The plate was cultured in a 37° C., 5% CO2 incubator for 24 hours. On the day of administration, each compound was formulated into 20 mM stock solution with DMSO (Sigma, Cat #D2650), diluted with a medium to the needed concentration, and then added to the corresponding wells for the cell proliferation inhibition test with a drug of 4-fold serial dilution with 10 points. The final concentration of DMSO was 0.5%. After drug addition, the 96-well plate was cultured in a 37° C., 5% CO2 incubator for 72 hours. Then, 20 μl of MTS (Promega, Cat #G3581) was added to each well and the plate was cultured for 2 hours in a 37° C., 5% CO2 incubator, and then the absorbance at 490 nm of each well was recorded using an Ensight instrument. The reading of the cells at Day 0 was used as a negative control and the reading of cells with 0.5% DMSO at Day-3 was used as a positive control. Cell proliferation inhibition curve was plotted using GraphPad Prism 5 software and the IC50 value was calculated. Experiment results can be seen in Table 1.

MM.1S myeloma cells [2] = assay: Cell proliferation inhibition test by CTG (CellTiter-Glo) assay; assay type: cell-based; details: Homo sapiens, MM1.S, 120 hours drug treatment, 4,000 cells/well, 384-well plate, read-out: MM.2S IC50
Protocol: Experimental Method for Cell Proliferation Inhibition Test by CTG Assay:
The proliferation inhibitory activity of the compounds in the MM.1S myeloma cell model was determined by CellTiter-Glo (CTG) Luminescent Cell Viability Assay (Promega). MM.1S cells (ATCC, Cat #CRL-2974) at exponential phase were resuspended in RPMI-1640 (Gibco, Cat #11875-093)+10% FBS+1% penicillin/streptomycin+2 mM Glutamax medium and counted using an automated cell counter (ViCellXR). According to the optimized cell plating density in the pre-experiments, 40 μl of cell suspension at a density of 100,000 cells/ml was plated in the corresponding wells of a 384-well plate (4,000 cells/well) to ensure that cells in the control group were at linear growth phase within the five-day experimental period. The plated 384-well plate was cultured in a 37° C., 5% CO2 incubator for 24 hours. On the day of administration, each compound was formulated into 10 mM stock solution with DMSO (Sigma, Cat #276855-1L) and the stock solution was further diluted with DMSO to 20 μM and 20 nM working solutions. Drug treatment of MM.1S cells started at a concentration of up to 100 nM and the drug was serial diluted 4-fold with 10 points, with three replicate wells. Nanoliter volumes of compound solutions were added to the corresponding wells of the 384-well plate according to the needed concentration in a non-contact spraying manner by an HPD300 microscale automated dispenser (Tecan). The final concentration of DMSO was 0.5%. After drug addition, the 384-well plate was cultured in a 37° C., 5% CO2 incubator for 120 hours. After five days of drug treatment, 25 μl of CTG reagent (Promega, Cat #G7573) was added to each well, and the plate was shaken on a plate shaker for 10 minutes to ensure that the cells were fully lysed, and then left to stand at room temperature for 10 minutes to ensure a sufficient reaction of CTG with the substrate and the generation of a stable luminescent signal. The signal is proportional to the amount of ATP in the cell lysate, i.e., the number of metabolically active cells. Chemiluminescence of the cells in the plate was detected by an EnSpire instrument. The reading of the cells at Day 0 was used as a control for cells at growth starting point and the reading of cells with 0.5% DMSO at Day 5 was used as a control for cells under growth. Cell proliferation inhibition curve was plotted using XLFit software and the IC50 value was calculated. Experiment results can be seen in Table 2.

IC50 (MM.1S myeloma cells [1]) | IC50 (MM.1S myeloma cells [2]) | SMILES
23.1 nM | 119 nM | Nc1cccc2c1CN(C1CCC(=O)NC1=O)C2=O (stereo not shown) [Control 1, reference compound]
 | 0.0606 nM | COc1c(C#N)ccc(N2CCN(Cc3ccc(COc4cccc5c4CN([C@H]4CCC(=O)NC4=O)C5=O)c(F)c3)CC2)c1F [CM-49]

SMILES | IC50 (MM.1S myeloma cells [1]) | IC50 (MM.1S myeloma cells [2])
N#Cc1ccc(N2CCN(Cc3ccc(COc4cccc5c4CN([C@H]4CCC(=O)NC4=O)C5=O)c(F)c3)CC2)c(F)c1Cl [CM-48] |  | 0.0365 nM
